The numbers were not newly measured in patent US5922683A, “Multicyclic erythromycin derivatives” (Abbott Laboratories, priority 1998, dated 1999), which cites them from elsewhere.

The test system of the data set is Gram-negative bacteria. The note with it: cited from earlier work.

With `CC[C@H]1OC(=O)[C@H](C)[C@@H](O[C@H]2C[C@@](C)(OC)[C@@H](O)[C@H](C)O2)[C@H](C)[C@@H](O[C@@H]2O[C@H](C)C[C@H](N(C)C)[C@H]2O)[C@](C)(O)C[C@@H](C)C(=O)[C@H](C)[C@@H](O)[C@]1(C)O` [Ery A, Erythromycin A], the “activity against Gram-negative bacteria” value is listed as “only weak activity”.
